Consider 3 compounds from US20050118290A1, “Compositions and method for treatment of steroid/nuclear receptor-mediated diseases” (University of Singapore, priority 2003, published 2005).

This test has as its target T1, PPARγ (Homo sapiens, UniProt P37231).
T1 construct: expressed in transfected cells; host or cells: HeLa
T1 sequence (P37231 238-503 limits assumed): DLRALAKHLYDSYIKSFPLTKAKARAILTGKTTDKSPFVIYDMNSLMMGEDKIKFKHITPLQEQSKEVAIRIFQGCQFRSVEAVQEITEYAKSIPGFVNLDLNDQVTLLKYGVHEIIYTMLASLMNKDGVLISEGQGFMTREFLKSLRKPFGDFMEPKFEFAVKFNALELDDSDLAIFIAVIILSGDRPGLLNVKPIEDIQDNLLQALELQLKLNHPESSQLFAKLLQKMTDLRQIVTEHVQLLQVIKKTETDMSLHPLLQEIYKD
In words: Chimeric Gal4DBD-PPARγLBD receptor / UASg-luciferase reporter gene assay in HeLa cells. In kind it is cell-based. The source says: In an example of such a reporter gene assay, a plasmid containing chimeric Ga14DBD-PPARLBD receptor cDNA was constructed by excising the ligand binding domain (LBD) of full length PPARγ and PPARα and ligating the resulting fragments in frame to the Ga14-DNA binding domain (DBD) of Saccharomyces cerevisiae in a pM vector (Clontech). Specifically, to construct Ga14DBD-PPARγLBD plasmid, pSG5 expression vector (Stratagene) containing full length PPARγ was excised with Rsa I and blunt ligated to Hind III site of pMGa14DBD expression plasmid (Clontech). To construct Ga14DBD-PPARαLBD plasmid, pSG5 expression vector (Stratagene) containing full length PPARα was excised with BstU I and BamH I and blunt-end ligated in frame to BamH I site of pMGa14DBD expression plasmid (Clontech). […] Ga14 DBD binds very strongly to the exogenous UASg promoter, thereby giving rise to a sensitive and specific assay. To measure PPARγ and PPARα agonist activity, HeLa cells were grown in 24-well microtiter plates and then transiently co-transfected with the two plasmids (chimeric PPAR receptor and UASg reporter gene) using Lipofectamine (Invitrogen). […] Concurrently, cells exposed to known PPAR ligands served as positive controls. Replicate wells, exposed to the vehicle solvent (i.e., ethanol or methanol) in which herbal extracts were dissolved, were used as negative controls. After the 40 hr incubation period, cells were rinsed with phosphate buffered saline (PBS), lysis buffer was added, and cell lysates were collected for measurement of luciferase activity using a luminometer. […] All data points are in triplicate. The data points represent the mean of triplicate wells. Luciferase activity in such an assay accurately reflects the activity of any ligands on PPARγ or PPARα.
A general note: In a reporter assay the amount or activity of a reporter protein is the signal.

[1] abbreviates: GW9662 0.1 ×10^−6M (first line).
The mark [2] stands for this setting: GW9662 0.1 ×10^−6M (second line, r12).

The structures appear in SMILES notation. Values after ≈ are worked out from the molar mass of the structure shown.

As for `CC1(COc2ccc(CC3SC(=O)NC3=O)cc2)CCCCC1` (stereo not shown) [ciglitazone, reference compound], the “Luciferase activity ± SEM (% ciglitazone 10 × 10^−6 M), substance alone” value turned out to be 15.4 ± 0.81% (0.1 ×10^−6 g/mL), 21.7 ± 1.52% (0.3 ×10^−6 g/mL), 55.3 ± 7.99% (1.0 ×10^−6 g/mL) and 100 ± 6.13% (3.0 ×10^−6 g/mL). Further, the “Luciferase activity ± SEM (% ciglitazone 10 × 10^−6 M), HQ extract + ciglitazone 10 × 10^−6 M” value (HQ extract 0.0 ×10^−6 g/mL (ciglitazone 10 × 10^−6 M only)) is 100 ± 2.91%.
Take `O=C(Nc1ccccc1)c1cc([N+](=O)[O-])ccc1Cl` [GW9662, reference compound]: the “Luciferase activity (% Pioglitazone 30 × 100^−6M ± SE), Piogliltazone (30 × 10^−6M)” value under setting [1] is given as 97 ± 23.8%; the “Luciferase activity (% Pioglitazone 30 × 100^−6M ± SE), Piogliltazone (30 × 10^−6M)” value under setting [2] is given as 114 ± 5%; the “Luciferase activity (% Pioglitazone 30 × 100^−6M ± SE), Piogliltazone (30 × 10^−6M)” value (GW9662 1 ×10^−6M) is 77.2 ± 11.4%; the “Luciferase activity (% Pioglitazone 30 × 100^−6M ± SE), Piogliltazone (30 × 10^−6M)” value (GW9662 10 ×10^−6M) amounted to 40.6 ± 12.3%. For the same compound, the “Luciferase activity (% Pioglitazone 30 × 100^−6M ± SE), Vehicle (DMSO)” value reads like this: under setting [1], 13.8 ± 0.207%; under setting [2], 13.8 ± 2.28%; (GW9662 1 ×10^−6M) 23.5 ± 2.74%; (GW9662 10 ×10^−6M) 39.3 ± 4.38%. Besides, the “PPARγ activity on its own” value (Table 12) is listed as “weak PPARγ agonistic activity”. Besides, the “doses that inhibited the PPARγ effects of pioglitazone” value (with pioglitazone 30 × 10^−6M, dose-dependent) is recorded as “above 1 ×10^−6M”.
Regarding `CCCCC/C=C/C=C1/C(=O)C=C[C@@H]1C/C=C\CCCC(=O)O` [Compound 15DPGJ2, 15-deoxy-δ12,14, Prostaglandin J2, reference compound], for the setting “FIG. 1A, HeLa cells”, the “EC50 (PPARγ activity)” value was 0.5 µg/mL (≈ 1.58 µM).
